Experimental data published in article PMC10952572, “Improved PIEZO1 agonism through 4‐benzoic acid modification of Yoda1” (British Journal of Pharmacology, 2023).

Target: T1, hPIEZO1 (Homo sapiens, UniProt Q92508)
T1 construct: expressed in transfected cells
Assay: Automated patch clamp (SyncroPatch 384) on hPIEZO1-TREx cells
Type: cell-based
Settings: for Effect on M-Stim-evoked currents: hPIEZO1-TREx cells, −80 mV; for Cells responding to activation: hPIEZO1-TREx, 10 μM KC157, 10 μM Yoda1, 5 μM KC159
Description: For automated patch clamp, cells were cultured and harvested according to Nanion's standard cell culture protocol (Obergrussberger et al., [2014]). hPIEZO1‐TREx cells were induced to express PIEZO1 by incubation with 0.5 μg·ml^−1 tetracycline 24 h prior to experiments. Whole‐cell patch‐clamp recordings were conducted on HEK‐TREx, hPIEZO1‐TREx and mPIEZO1‐TREx cells according to Nanion's standard procedure for the SyncroPatch 384, using medium resistance (4–5 MΩ) chips (Obergrussberger et al., [2018]). Cells were held at −80 mV for the duration of the experiment. The channel was activated by mechanical forces in the absence and presence of the agonists. To stimulate PIEZO1 channels mechanically (mechanical stimulation [M‐Stim]), we dispensed 20 μl of solution (either reference or agonist) locally to the cell at a pipetting speed of 110 μl·s^−1 in synchrony with a triggered recording of the current response at the holding potential. The internal solution contained 110 mM KF, 10 mM KCl, 10 mM NaCl, 10 mM HEPES and 10 mM EGTA, pH adjusted to 7.2 with KOH, and the external solution contained 140 mM NaCl, 4 mM KCl, 2 mM CaCl2, 1 mM MgCl2, 5 mM glucose, 10 mM HEPES, pH adjusted to 7.4 with NaOH, and 0.1% DMSO to match the DMSO concentration of the compound solutions. For PIEZO1 stimulation, KC159, KC157 or Yoda1 was applied directly onto the cells via a pipette application. One chip of the SyncroPatch 384 is equipped with 384 wells served by 384 robotic pipettes and connected to 384 individual amplifiers, allowing us to test 384 distinct cells in one experiment. We tested the effect of each specified analogue on mPIEZO1‐, hPIEZO1‐ and untransfected HEK‐TREx cells in parallel and in comparison to mechanical and Yoda1 stimulation. To estimate the EC50 values, four concentrations of each agonist were tested per cell line in one chip, with each cell receiving single concentrations, and the concentration–response curve was calculated across the whole chip (384 cells). Only cells with seal resistance >0.3 GΩ, series resistance <20 MΩ and cell capacitance >5 and <40 pF were used for analysis.
DataControl 384 (Nanion Technologies GmbH), Prism 9 (GraphPad) and OriginPro 2020 (OriginLab) were used for all analysis of automated patch‐clamp data. For manual and automated patch‐clamp data, n represents the number of cells recorded from successfully in each experimental condition, sampled from two to six batches of cells or 384‐well chips in automated patch clamp. For manual patch‐clamp experiments, each cell/patch recording (n) is considered as an independent experiment because each was made independently at a separate time, using a separate coverslip of cells and using a separate patch pipette. In some instances, more than one such independent recording was made from the same batch of cultured or transfected cells. These n values are considered as independent. Each cell was studied alone and from a separate coverslip in the case for manual patch clamp. To estimate the EC50 values of the agonists in automated patch‐clamp studies, the peak current in the presence of the agonist was normalised to the peak current in the presence of the reference solution. Single‐point concentration–response curves were fitted with a standard Hill equation to estimate EC50 values. P < 0.05 was deemed significant. For automated patch‐clamp experiments, we included some data for n < 5 (Figure 7a,b). […] Such replicates are a feature of, and a rationale for, this automated technology, which is an innovation for the type of research shown here but already commonly used in the pharmaceutical industry for other ion channel studies to increase throughput and avoid waste from large volumes of independent cell cultures and minimise cost from expensive specially engineered plates. As a general strategy, our study used multiple independent technical approaches to address the same or similar questions. […]

T1 sequence (Q92508 whole entry): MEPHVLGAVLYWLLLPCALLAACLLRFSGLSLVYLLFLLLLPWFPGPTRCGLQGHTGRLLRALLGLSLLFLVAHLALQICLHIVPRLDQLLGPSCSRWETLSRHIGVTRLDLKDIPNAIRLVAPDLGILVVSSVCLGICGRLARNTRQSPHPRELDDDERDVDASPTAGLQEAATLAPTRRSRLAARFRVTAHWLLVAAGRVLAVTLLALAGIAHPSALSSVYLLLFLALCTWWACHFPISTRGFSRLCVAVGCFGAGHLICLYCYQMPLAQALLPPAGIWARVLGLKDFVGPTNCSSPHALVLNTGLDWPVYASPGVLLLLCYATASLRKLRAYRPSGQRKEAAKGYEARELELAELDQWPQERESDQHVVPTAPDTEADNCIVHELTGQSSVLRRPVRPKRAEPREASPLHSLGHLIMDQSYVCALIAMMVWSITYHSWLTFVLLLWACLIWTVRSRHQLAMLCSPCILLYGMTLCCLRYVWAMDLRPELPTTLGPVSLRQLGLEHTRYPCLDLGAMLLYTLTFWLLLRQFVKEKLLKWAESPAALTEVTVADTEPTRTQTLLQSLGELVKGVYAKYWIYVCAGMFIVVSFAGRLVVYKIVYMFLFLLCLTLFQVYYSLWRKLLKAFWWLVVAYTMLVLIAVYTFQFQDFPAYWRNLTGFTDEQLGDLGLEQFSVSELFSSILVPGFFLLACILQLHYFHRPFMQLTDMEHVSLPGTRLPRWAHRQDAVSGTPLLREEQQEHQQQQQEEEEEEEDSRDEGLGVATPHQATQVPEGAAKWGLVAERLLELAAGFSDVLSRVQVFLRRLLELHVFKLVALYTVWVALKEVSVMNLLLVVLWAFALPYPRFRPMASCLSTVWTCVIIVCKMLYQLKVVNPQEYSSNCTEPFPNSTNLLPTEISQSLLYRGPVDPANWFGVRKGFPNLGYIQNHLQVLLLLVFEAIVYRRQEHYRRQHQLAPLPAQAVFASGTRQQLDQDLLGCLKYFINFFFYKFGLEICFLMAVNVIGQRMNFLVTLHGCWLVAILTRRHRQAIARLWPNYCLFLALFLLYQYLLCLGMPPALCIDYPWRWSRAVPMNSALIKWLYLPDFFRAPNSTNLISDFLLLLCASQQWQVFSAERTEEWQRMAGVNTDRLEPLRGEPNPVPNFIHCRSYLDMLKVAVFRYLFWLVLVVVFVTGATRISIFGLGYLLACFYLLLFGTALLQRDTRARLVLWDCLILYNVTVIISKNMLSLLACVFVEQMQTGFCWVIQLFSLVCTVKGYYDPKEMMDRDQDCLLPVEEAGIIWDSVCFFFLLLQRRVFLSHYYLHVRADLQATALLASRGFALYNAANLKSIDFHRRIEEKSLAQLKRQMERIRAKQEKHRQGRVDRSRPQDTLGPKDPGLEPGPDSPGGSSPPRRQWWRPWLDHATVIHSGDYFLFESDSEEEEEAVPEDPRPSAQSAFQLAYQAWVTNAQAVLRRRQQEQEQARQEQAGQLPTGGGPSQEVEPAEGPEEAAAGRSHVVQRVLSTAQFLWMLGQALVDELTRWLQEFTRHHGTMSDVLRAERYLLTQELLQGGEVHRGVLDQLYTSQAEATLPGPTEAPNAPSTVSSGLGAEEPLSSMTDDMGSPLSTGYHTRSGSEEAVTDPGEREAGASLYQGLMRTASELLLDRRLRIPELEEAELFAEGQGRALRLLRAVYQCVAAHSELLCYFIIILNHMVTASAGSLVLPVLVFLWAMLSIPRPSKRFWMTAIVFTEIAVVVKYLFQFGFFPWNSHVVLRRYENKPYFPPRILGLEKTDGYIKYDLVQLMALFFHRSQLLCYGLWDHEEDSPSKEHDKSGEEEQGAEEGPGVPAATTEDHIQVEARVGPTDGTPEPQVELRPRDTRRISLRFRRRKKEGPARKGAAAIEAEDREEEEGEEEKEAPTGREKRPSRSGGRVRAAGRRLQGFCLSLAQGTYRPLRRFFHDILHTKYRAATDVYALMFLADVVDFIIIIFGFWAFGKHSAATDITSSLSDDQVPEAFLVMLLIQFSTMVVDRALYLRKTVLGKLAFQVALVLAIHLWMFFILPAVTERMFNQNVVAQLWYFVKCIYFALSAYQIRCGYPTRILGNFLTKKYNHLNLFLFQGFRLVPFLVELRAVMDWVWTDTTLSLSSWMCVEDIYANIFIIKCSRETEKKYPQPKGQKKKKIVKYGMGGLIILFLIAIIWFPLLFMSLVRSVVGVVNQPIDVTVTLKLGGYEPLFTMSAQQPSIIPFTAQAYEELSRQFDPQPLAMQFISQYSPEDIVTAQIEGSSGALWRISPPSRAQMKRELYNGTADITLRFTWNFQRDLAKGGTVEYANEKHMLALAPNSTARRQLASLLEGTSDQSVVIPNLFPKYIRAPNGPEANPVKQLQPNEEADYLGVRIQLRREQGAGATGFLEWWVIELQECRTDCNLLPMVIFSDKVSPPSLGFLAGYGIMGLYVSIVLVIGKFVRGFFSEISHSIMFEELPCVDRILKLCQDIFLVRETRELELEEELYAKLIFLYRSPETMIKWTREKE

SMILES | Effect on M-Stim-evoked currents (10 μM) | Cells responding to activation | Sustained component of current as % of peak current (10 μM, hPIEZO1 cells, mean ± SD) [%] | EC50 (hPIEZO1, normalised peak current, maximum response not certain, read-out: EC50 (estimate)) [nM]
O=C(O)c1ccccc1-c1nnc(SCc2c(Cl)cccc2Cl)s1 [KC157] | mostly fails to evoke responses | largely ineffective |  | 
O=C(O)c1ccc(-c2nnc(SCc3c(Cl)cccc3Cl)s2)cc1 [KC159] | greatly amplifies the currents | more cells to respond compared with Yoda1 | −4 ± 2 | ~1670
